# Laboratory results published in patent publication US5281717A, “Epoxysuccinamic acid derivatives” (Taisho Pharmaceutical Co., Ltd., priority 1990, dated 1994).
# Read-outs that look alike come from different tables or passages of the source.
# Key:
# Format in all cases: biochemical
# [1] = biological target: T1, cathepsin B (Homo sapiens, UniProt P07858); assay: Inhibitory Activity against Cathepsin B; conditions: pH 6.0, 40° C., preincubated 3 minutes, incubation 10 minutes, substrate benzyloxycarbonyl-L-phenylalanyl-L-arginine 4-methylcoumaryl-7-amide
# T1 construct: purchased Sigma Chemical Co
# Description: To each of 0.95 ml of the reaction solutions containing 2.5 mM 2-mercaptoethanol, 1 mM disodium ethylenediaminetetraacetate, 0.1 M sodium potassium phosphate buffer (pH 6.0), 0.1% Brij-35 (produced by Nacalai Tesque Inc.), 1% dimethyl sulfoxide and various concentrations of the test drug was added 25 μl of 200 nM cathepsin B solution (produced by Sigma Chemical Co.), and the mixture was preincubated at 40° C. for 3 minutes, after which 25 μl of 200 μM benzyloxycarbonyl-L-phenylalanyl-L-arginine 4-methylcoumaryl-7-amide (produced by Peptide Institute Inc.) was added for starting the reaction After incubation at 40° C. for 10 minutes, the reaction was stopped by addition of 1 ml of 100 mM sodium acetate buffer (pH 4.3) containing 100 nM sodium chloroacetate. The fluorescence of the liberated 7-amino-4-methyl-coumarine was determined using a Shimazu fluorometer RP-5000 with excitation at 380 nm and emission measured at 440 nm.
# [2] = biological target: T2, papain (Carica papaya, UniProt P00784); assay: Inhibitory Activity Against Papain
# T2 construct: purchased Sigma Chemical Co
# T2 sequence (P00784 134-345): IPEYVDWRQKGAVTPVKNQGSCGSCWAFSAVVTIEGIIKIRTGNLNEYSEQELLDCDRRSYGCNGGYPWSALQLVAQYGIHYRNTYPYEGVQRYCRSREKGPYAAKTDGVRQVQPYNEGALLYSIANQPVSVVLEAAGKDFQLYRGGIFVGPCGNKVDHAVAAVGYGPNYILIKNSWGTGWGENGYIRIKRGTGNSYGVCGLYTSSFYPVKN
# Description: (§1) The inhibitory activities against papain, CANP and cathepsin B were measured according to the following methods, and results are shown in Table 1.
# The measurement was carried out according to the method of A. J. Barrett et al [Biochem. J., vol. 201, p. 189 (1982)].
# To each of 0.95 ml of the reaction solutions containing 2.5 mM 2-mercaptoethanol, 1 mM disodium ethylenediaminetetraacetate, 0.1 M sodium potassium phosphate buffer (pH 6.8), 0.1% Brij-35 (produced by Nacalai Tesque Inc.), 1% dimethyl sulfoxide and various concentrations of the test drug was added 25 μl of a papain solution (produced by Sigma Chemical Co.), and the mixture was preincubated at 40° C. for 3 minutes, after which 25 μl of 200 μM benzyloxycarbonyl-L-phenylalanyl-L-arginine 4-methylcoumaryl-7-amide (produced by Peptide Institute Inc.) was added for starting the reaction After incubation at 40° C. for 10 minutes, the reaction was stopped by addition of 1 ml of 100 mM sodium acetate buffer solution (pH 4.3) containing 100 mM sodium chloroacetate. The fluorescence of the liberated 7-amino-4-methylcoumarine was determined using a Shimazu fluorometer RF-5000 with excitation at 380 nm and emission measured at 440 nm. […]
# [3] = biological target: T3, μ CANP (Calpain I) (Homo sapiens, UniProt P07384); assay: Inhibitory Activity Against CANP; conditions: pH 7.5, 30° C., preincubated 5 minutes, incubation 20 minutes, alkali-denatured casein
# T3 construct: purchased Nacalai Tesque Inc
# T3 sequence (P07384 2-714 limits assumed): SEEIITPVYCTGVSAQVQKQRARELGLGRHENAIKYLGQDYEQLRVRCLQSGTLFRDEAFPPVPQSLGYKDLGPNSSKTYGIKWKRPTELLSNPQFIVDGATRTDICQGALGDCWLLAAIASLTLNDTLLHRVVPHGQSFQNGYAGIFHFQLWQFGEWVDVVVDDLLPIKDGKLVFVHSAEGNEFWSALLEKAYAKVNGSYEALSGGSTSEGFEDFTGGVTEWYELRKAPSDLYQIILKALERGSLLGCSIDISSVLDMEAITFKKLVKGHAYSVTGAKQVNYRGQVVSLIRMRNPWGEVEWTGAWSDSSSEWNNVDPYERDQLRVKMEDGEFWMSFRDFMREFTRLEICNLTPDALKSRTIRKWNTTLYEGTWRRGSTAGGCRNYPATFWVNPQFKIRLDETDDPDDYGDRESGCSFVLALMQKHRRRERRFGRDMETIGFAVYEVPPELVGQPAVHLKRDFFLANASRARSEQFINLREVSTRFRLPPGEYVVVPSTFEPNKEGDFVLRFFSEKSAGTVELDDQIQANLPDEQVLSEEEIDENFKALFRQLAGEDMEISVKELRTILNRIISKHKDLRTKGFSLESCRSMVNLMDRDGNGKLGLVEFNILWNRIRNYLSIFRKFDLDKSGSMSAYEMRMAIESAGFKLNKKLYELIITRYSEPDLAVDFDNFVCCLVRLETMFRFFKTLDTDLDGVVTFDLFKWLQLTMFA
# T3 sequence (P04632 1-268 partner): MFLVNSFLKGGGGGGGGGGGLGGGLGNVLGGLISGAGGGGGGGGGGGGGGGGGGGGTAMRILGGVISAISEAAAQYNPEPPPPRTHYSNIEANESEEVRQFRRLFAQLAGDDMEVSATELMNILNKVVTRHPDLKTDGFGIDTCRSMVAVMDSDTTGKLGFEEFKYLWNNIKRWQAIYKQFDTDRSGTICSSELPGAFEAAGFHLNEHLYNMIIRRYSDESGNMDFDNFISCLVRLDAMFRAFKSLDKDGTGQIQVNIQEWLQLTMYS
# Description: as §1
# The measurement was carried out according to the method of S. Ishiura et al (J. Biochem., vol. 84, p. 225 (1978)].
# Each of 0.45 ml of the reaction solutions containing 25 mM 2-mercaptoethanol, 5 mM calcium chloride, 0.1 M sodium glycerophosphate-HCl buffer (pH 7.5), 0.24% alkali-denatured casein, 1% dimethylsulfoxide and various concentrations of the test drug was preincubated accurately at 30° C. for 5 minutes, and 50 μl of a solution containing 5 μg of μ CANP (Calpain I, produced by Nacalai Tesque Inc.) was added for starting the reaction. After exact incubation at 30° C. for 20 minutes, the reaction was stopped by addition of 0.5 ml of 10% trichloroacetic acid. After being allowed to stand at room temperature for 60 minutes, the mixture was centrifuged at 3000 × g for 5 minutes, and the absorbance at 280 nm of the supernatant was determined. The remaining activity was obtained by reducing the blank value which was obtained in a similar manner to the above but adding 10% trichloroacetic acid prior to addition of μ CANP from the above value. […]
Compound,IC50 [1],IC50 [2],IC50 [3],"IC50 ([2]; pH 6.8, 40° C., preincubated 3 minutes, incubation 10 minutes, substrate benzyloxycarbonyl-L-phenylalanyl-L-arginine 4-methylcoumaryl-7-amide, read-out: Inhibitory Activity Value [IC50 (nM)] Papain)"
CCCCCNC(=O)[C@H]1O[C@@H]1C(=O)N[C@H](C(=O)N1CCC[C@H]1C(=O)O)[C@@H](C)CC [Compound 8d],32 nM,26000 nM,> 200000 nM,
"CCCNC(=O)[C@H]1O[C@@H]1C(=O)N[C@H](C(=O)N1CCC[C@H]1C(=O)O)[C@@H](C)CC [Compound 1d, N-(L-3-trans-n-propylcarbamoyloxirane-2-carbonyl)-L-isoleucyl-L-proline]",,,> 200000 nM,57400 nM
